Experimental data taken from patent US3985887A, “3-Substituted-4-hydroxyphenyl-2-piperidylcarbinols as β-adrenergic stimulants” (SmithKline Corporation, priority 1975, dated 1976).
Counter-ions that a name gives are not always drawn.

How the values were obtained:
[1] = system: spontaneously beating right atria of the guinea pig; test: effect on spontaneously beating right atria of the guinea pig (β-stimulant effect on cardiac muscle); format: cell-based; details: Cavia porcellus, in vitro, read-out: ED25, dose which produces 25% of the maximum possible increase in atrial contraction rate
Description: (§1) The compounds of this invention are β-adrenergic stimulants which have direct bronchodilator activity with minimal cardiac stimulation. This selective β-stimulant activity is determined by two standard in vitro pharmacological test systems: (1) effect on spontaneous tone of guinea pig tracheal chain preparation as a measure of β-stimulant (direct relaxant) effect on airway smooth muscle, and (2) effect on spontaneously beating right atria of the guinea pig as a measure of β-stimulant effect on cardiac muscle. Compounds that show selective bronchodilating properties, as the compounds of this invention do, are active in test (1) at a dose lower than is required in test (2) thereby resulting in a positive separation ratio. Results of test (1) are reported as the dose which produces 50% of the maximum possible relaxation (ED50). Test (2) results are reported as the dose which produces 25% of the maximum possible increase in atrial contraction rate (ED25).

[2] = system: guinea pig tracheal chain preparation; test: effect on spontaneous tone of guinea pig tracheal chain preparation (β-stimulant direct relaxant effect on airway smooth muscle); format: cell-based; details: Cavia porcellus, in vitro, read-out: ED50, dose which produces 50% of the maximum possible relaxation
Description: as §1

EC50 [2] [µg/mL]	SMILES	EC25 [1] [µg/mL]
0.83	NC(=O)Nc1cc(C(O)C2CCCCN2)ccc1O (stereo not drawn) [α-(4-hydroxy-3-ureidophenyl)-2-piperidylcarbinol hydrochloride]	9.4
0.14	CS(=O)(=O)Cc1cc(C(O)C2CCCCN2)ccc1O (stereo not drawn) [α-(4-hydroxy-3-methanesulfonylmethylphenyl)-2-piperidylcarbinol hydrobromide]	1.1

SMILES	EC50 [2] [µg/mL]	EC25 [1] [µg/mL]
Nc1cc(C(O)C2CCCCN2)ccc1O (stereo not drawn) [α-(3-amino-4-hydroxyphenyl)-2-piperidylcarbinol hydrobromide]	0.12	4.4
